Reference: patent US9302999B2, “Substituted triazoles as herbicides” (E. I. DU PONT DE NEMOURS AND COMPANY, priority 2012, dated 2016)

Columns and labels:
Type in all cases: in vivo
corn (Zea mays) = assay: Test A pre-/postemergence: corn
Method in brief: (§1)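 Whole-plant greenhouse assay in loam/sand. Preemergence directed soil spray plus simultaneous postemergence spray (one- to two-leaf stage, 2–10 cm). Rated visually ~10 days later, 0 = no effect, 100 = complete control.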

[1] = tested on: johnsongrass (Sorghum halepense); assay: Test C pre-/postemergence: johnsongrass
Method in brief: (§2)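 Preemergence on seeds in loam/sand, postemergence on 2–18 cm (1–4-leaf) plants in peat-based medium; compounds in non-phytotoxic solvent with surfactant. After 13–15 days in greenhouse, visual rating versus controls, 0 (no effect) to 100 (complete control).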

[2] = tested on: velvetleaf (Abutilon theophrasti); assay: Test C pre-/postemergence: velvetleaf
Method in brief: as §2

[3] = tested on: foxtail, giant (giant foxtail, Setaria faberii); assay: Test C pre-/postemergence: foxtail, giant
Method in brief: as §2

[4] = tested on: wheat (Triticum aestivum); assay: Test A pre-/postemergence: wheat
Method in brief: as §1

[5] = tested on: morningglory (Ipomoea spp.); assay: Test A pre-/postemergence: morningglory
Method in brief: as §1

[6] = tested on: ryegrass, Italian (Italian ryegrass, Lolium multiflorum); assay: Test C pre-/postemergence: ryegrass, Italian
Method in brief: as §2

[7] = tested on: ragweed (common ragweed, Ambrosia elation); assay: Test C pre-/postemergence: ragweed
Method in brief: as §2

[8] = tested on: galium (catchweed bedstraw, Galium aparine); assay: Test C pre-/postemergence: galium
Method in brief: as §2

kochia (Kochia scoparia) = assay: Test C pre-/postemergence: kochia
Method in brief: as §2

[9] = tested on: large crabgrass (Digitaria sanguinalis); assay: Test C pre-/postemergence: large crabgrass
Method in brief: as §2

[10] = tested on: pigweed (Amaranthus retroflexus); assay: Test C pre-/postemergence: pigweed
Method in brief: as §2

[11] = Postemergence, 125 g ai/ha, 0 to 100 scale, 0 is no effect, 100 is complete control
[12] = Postemergence, 500 g ai/ha, 0 to 100 scale, 0 is no effect, 100 is complete control
[13] = Preemergence, 125 g ai/ha, 0 to 100 scale where 0 is no effect and 100 is complete control
[14] = Preemergence, 500 g ai/ha, 0 to 100 scale (0 no effect, 100 complete control)
[15] = Postemergence, 31 g ai/ha, scale 0 to 100 (0 no effect, 100 complete control)
[16] = Postemergence, 62 g ai/ha, scale 0 to 100 (0 no effect, 100 complete control)
[17] = Postemergence, 125 g ai/ha, scale 0 to 100, 0 no effect, 100 complete control
[18] = Postemergence, 250 g ai/ha, scale 0 to 100 (0 no effect, 100 complete control)
[19] = Preemergence, 125 g ai/ha, scale 0 to 100, 0 no effect, 100 complete control
[20] = Preemergence, 250 g ai/ha, scale 0 to 100, 0 no effect, 100 complete control
[21] = Preemergence, 31 g ai/ha, scale 0 (no effect) to 100 (complete control)
[22] = Preemergence, 62 g ai/ha, scale of 0 to 100, 0 is no effect, 100 is complete control
[23] = Postemergence, 250 g ai/ha, scale 0 to 100

CCOc1nn(-c2ccc(F)cc2)nc1Cc1ccnc(C(F)F)c1 [Compound 195]
Plant response rating, Corn (corn (Zea mays); [11]): 30
Corn plant response rating (corn (Zea mays); [12]): 60
Plant response rating, Corn (corn (Zea mays); [13]): 20
Plant response rating, Corn (corn (Zea mays); [14]): 30
Plant response rating, Johnsongrass [1, 15]: 55
Plant response rating, Johnsongrass [1, 16]: 80
Plant response rating, Johnsongrass [1, 17]: 95
Plant response rating, Johnsongrass [1, 18]: 95
Plant response rating, Johnsongrass [1, 19]: 98
Plant response rating, Johnsongrass [1, 20]: 100
Plant response rating, Velvetleaf [2, 15]: 45
Plant response rating, Velvetleaf [2, 16]: 50
Plant response rating, Velvetleaf [2, 17]: 60
Plant response rating, Velvetleaf [2, 18]: 65
Plant response rating, Velvetleaf [2, 21]: 10
Plant response rating, Velvetleaf [2, 22]: 25
Plant response rating, Velvetleaf [2, 19]: 55
Plant response rating, Velvetleaf [2, 20]: 90
Plant response rating, Foxtail, Giant [3, 15]: 35
Plant response rating, Foxtail, Giant [3, 16]: 35
Plant response rating, Foxtail, Giant [3, 17]: 75
Plant response rating, Foxtail, Giant [3, 23]: 90
Plant response rating, Foxtail, Giant [3, 21]: 98
Plant response rating, Foxtail, Giant [3, 22]: 98
Plant response rating, Foxtail, Giant [3, 19]: 100
Plant response rating, Foxtail, Giant [3, 20]: 100
Plant response rating, Wheat [4, 11]: 30
Wheat plant response rating [4, 12]: 30
Plant response rating, Wheat [4, 13]: 20
Plant response rating, Wheat [4, 14]: 50
Plant response rating, Morningglory [5, 11]: 80
Morningglory plant response rating [5, 12]: 100
Plant response rating, Morningglory [5, 13]: 50
Plant response rating, Morningglory [5, 14]: 60
Plant response rating, Ryegrass, Italian [6, 15]: 25
Plant response rating, Ryegrass, Italian [6, 16]: 55
Plant response rating, Ryegrass, Italian [6, 17]: 60
Plant response rating, Ryegrass, Italian [6, 18]: 60
Plant response rating, Ryegrass, Italian [6, 21]: 50
Plant response rating, Ryegrass, Italian [6, 22]: 80
Plant response rating, Ryegrass, Italian [6, 19]: 90
Plant response rating, Ryegrass, Italian [6, 20]: 90
Plant response rating, Ragweed [7, 16]: 50
Plant response rating, Ragweed [7, 17]: 70
Plant response rating, Ragweed [7, 18]: 85
Plant response rating, Ragweed [7, 21]: 15
Plant response rating, Ragweed [7, 22]: 20
Plant response rating, Ragweed [7, 19]: 20
Plant response rating, Ragweed [7, 20]: 55
Plant response rating, Galium [8, 15]: 80
Plant response rating, Galium [8, 16]: 95
Plant response rating, Galium [8, 17]: 95
Plant response rating, Galium [8, 18]: 95
Plant response rating, Galium [8, 21]: 10
Plant response rating, Galium [8, 22]: 80
Plant response rating, Galium [8, 19]: 90
Plant response rating, Galium [8, 20]: 95
Plant response rating, Kochia (kochia (Kochia scoparia); [15]): 75
Plant response rating, Kochia (kochia (Kochia scoparia); [16]): 85
Plant response rating, Kochia (kochia (Kochia scoparia); [17]): 90
Plant response rating, Kochia (kochia (Kochia scoparia); [18]): 95
Plant response rating, Kochia (kochia (Kochia scoparia); [21]): 60
Plant response rating, Kochia (kochia (Kochia scoparia); [22]): 75
Plant response rating, Kochia (kochia (Kochia scoparia); [20]): 95
Plant response rating, Crabgrass, Large [9, 15]: 55
Plant response rating, Crabgrass, Large [9, 16]: 60
Plant response rating, Crabgrass, Large [9, 17]: 90
Plant response rating, Crabgrass, Large [9, 23]: 95
Plant response rating, Crabgrass, Large [9, 21]: 98
Plant response rating, Crabgrass, Large [9, 22]: 100
Plant response rating, Crabgrass, Large [9, 19]: 100
Plant response rating, Crabgrass, Large [9, 20]: 100
Plant response rating, Pigweed [10, 15]: 95
Plant response rating, Pigweed [10, 16]: 95
Plant response rating, Pigweed [10, 17]: 98
Plant response rating, Pigweed [10, 18]: 98
Plant response rating, Pigweed [10, 21]: 98
Plant response rating, Pigweed [10, 22]: 98
Plant response rating, Pigweed [10, 19]: 100
Plant response rating, Pigweed [10, 20]: 100
